Source: ChEMBL document CHEMBL4196115 (ACS Med Chem Lett, 2018)
Residue numbers refer to the chain shown, from its start. The source made the active and inactive calls. No cut-off for these calls is given here.

How the values were obtained:
[1] = target: T1, Muscarinic acetylcholine receptor M1 (Macaca mulatta) (UniProt P56489); settings: CHO
T1 sequence (whole entry): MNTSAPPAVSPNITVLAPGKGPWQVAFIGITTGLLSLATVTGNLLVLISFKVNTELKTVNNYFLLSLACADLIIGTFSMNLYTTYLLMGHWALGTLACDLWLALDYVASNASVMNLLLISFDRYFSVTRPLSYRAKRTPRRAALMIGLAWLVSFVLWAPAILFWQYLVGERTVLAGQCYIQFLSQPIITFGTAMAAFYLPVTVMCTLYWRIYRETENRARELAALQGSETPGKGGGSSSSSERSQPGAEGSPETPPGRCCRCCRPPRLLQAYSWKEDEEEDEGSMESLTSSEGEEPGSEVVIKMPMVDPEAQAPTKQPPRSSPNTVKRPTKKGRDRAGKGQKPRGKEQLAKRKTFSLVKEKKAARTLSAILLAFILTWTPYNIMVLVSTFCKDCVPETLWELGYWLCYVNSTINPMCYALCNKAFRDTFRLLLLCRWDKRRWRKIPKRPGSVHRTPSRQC
Description: Positive allosteric modulation of rhesus monkey muscarinic acetylcholine receptor M1 expressed in CHO cells assessed as increase in acetylcholine-induced calcium mobilization pretreated for 4 mins followed by acetylcholine addition and measured after 4 mins by Fluo-4-AM dye based FLIPR assay

[2] = target: T2, Muscarinic acetylcholine receptor M1 (Mus musculus) (UniProt P12657); settings: CHO
T2 sequence (whole entry): T1 sequence (whole entry) with A5V, T254S, P265A, D277E, R320K, A337G, I413V
Description: Positive allosteric modulation of mouse muscarinic acetylcholine receptor M1 expressed in CHO cells assessed as increase in acetylcholine-induced calcium mobilization pretreated for 4 mins followed by acetylcholine addition and measured after 4 mins by Fluo-4-AM dye based FLIPR assay

[3] = target: T3, Muscarinic acetylcholine receptor M4 (Homo sapiens) (UniProt P08173); experiment: Positive allosteric modulation of human muscarinic acetylcholine receptor M4 expressed in CHO cells; assay type: functional, cell-based
T3 sequence (whole entry): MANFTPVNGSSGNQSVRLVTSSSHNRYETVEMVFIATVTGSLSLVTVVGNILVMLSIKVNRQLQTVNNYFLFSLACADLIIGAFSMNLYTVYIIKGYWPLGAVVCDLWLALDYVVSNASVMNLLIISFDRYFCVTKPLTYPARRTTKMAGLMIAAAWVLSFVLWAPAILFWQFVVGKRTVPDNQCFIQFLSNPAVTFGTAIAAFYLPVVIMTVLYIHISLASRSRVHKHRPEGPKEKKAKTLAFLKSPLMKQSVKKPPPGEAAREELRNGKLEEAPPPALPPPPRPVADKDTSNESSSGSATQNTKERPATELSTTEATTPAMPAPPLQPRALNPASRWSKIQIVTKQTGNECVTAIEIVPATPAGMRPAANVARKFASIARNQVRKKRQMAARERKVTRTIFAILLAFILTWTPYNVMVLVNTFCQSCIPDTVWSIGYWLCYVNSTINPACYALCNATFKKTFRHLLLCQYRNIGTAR

[4] = target: T4, Muscarinic acetylcholine receptor (Canis lupus familiaris) (UniProt A0A8C0MJA7); settings: CHO
T4 sequence (whole entry): T1 sequence (whole entry) with V155I, P246R, A248T, P265T, D277E, Q312P, K331R, D335E, P343A, D393N
Description: Positive allosteric modulation of dog muscarinic acetylcholine receptor M1 expressed in CHO cells assessed as increase in acetylcholine-induced calcium mobilization pretreated for 4 mins followed by acetylcholine addition and measured after 4 mins by Fluo-4-AM dye based FLIPR assay

[5] = target: Muscarinic acetylcholine receptor M3 (Homo sapiens) (UniProt P20309); experiment: Agonist activity at human muscarinic acetylcholine receptor M3 expressed in CHO cells; assay type: functional, cell-based
Sequence of Muscarinic acetylcholine receptor M3 (Homo sapiens) (P20309 whole entry, looked up): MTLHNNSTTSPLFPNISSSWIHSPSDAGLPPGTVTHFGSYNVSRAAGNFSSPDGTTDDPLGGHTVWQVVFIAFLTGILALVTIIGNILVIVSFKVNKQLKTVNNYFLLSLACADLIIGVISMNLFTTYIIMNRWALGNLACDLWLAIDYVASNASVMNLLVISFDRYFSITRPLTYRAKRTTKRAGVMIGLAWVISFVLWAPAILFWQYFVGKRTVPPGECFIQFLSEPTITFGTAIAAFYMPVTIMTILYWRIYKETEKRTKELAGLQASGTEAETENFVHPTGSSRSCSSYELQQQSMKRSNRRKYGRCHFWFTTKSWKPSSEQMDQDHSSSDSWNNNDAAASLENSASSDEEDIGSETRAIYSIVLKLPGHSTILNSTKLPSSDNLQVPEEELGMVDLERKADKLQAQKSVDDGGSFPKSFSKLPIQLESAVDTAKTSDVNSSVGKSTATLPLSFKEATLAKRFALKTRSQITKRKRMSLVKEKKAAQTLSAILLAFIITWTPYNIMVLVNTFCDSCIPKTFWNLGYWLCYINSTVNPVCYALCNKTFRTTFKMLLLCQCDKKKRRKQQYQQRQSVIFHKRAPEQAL

`Cc1ccc(Cc2cc3c(=O)n([C@H]4CCCC[C@@H]4O)cnc3c3ccccc23)cn1` was tested, and the IP [1] was 3.8 nM, the IP [2] was 6.7 nM and the Activity [3] was “inactive”. For the same molecule, the IP [4] was 1.4 nM and the Activity [5] was “inactive”.
